Data from patent US20220339127A1, “DRUGGABLE TARGET TO TREAT RETINAL DEGENERATION” (The United States of America,as represented by the …, priority 2019, published 2022).
“Also recorded” adds a separate entry of the source.

What was measured:
Format in all cases: cell-based, human
iRPE cells [1] = assay: A23187 cytotoxicity on iRPE cells (CellTitrGlo ATP release)
Excerpt: It was hypothesized that the loss of epithelial phenotype/RPE dedifferentiation is a key AMD cellular phenotype and easier to set up for a high throughput screen. Drugs that would suppress RPE dedifferentiation and recover the epithelial phenotype in cells might also work to rescue additional AMD cellular endophenotypes. Drug screen was designed using a calcium-ionophore A23187 instead of CC-HS serum, for three reasons: 1) CC-HS lost activity in liquid handler tubing used for medium change, likely because active complement proteins were absorbed on the walls of liquid handler tubes; 2) Similar to A23187, CC-HS treatment of iRPE also led to a defect in intracellular calcium homeostasis.
10 μM concentration of A23187 was selected for the drug screening, because it provided a bigger margin for cell death rescue. A commercially available library of pharmaceutically active compounds (LOPAC) with 1280 drugs was used for the screen at two different concentrations 9.2 μM and 46 μM. […]

iRPE cells [2] = assay: Proteotoxic high throughput screen (LOPAC) and follow up screen: survival of A23187 treated iRPE; conditions: seven-point dose curve; A23187 2.5, 5, 10 μM; two iRPE samples
Protocol: 10 μM concentration of A23187 was selected for the drug screening, because it provided a bigger margin for cell death rescue. […] Drug treatment along with the stressor, 10 μM A23187 were added on to iRPE cells matured in 384-well plates and cell death was scored 48 hours later by ATP release using the CellTitrGlo assay.
To distinguish false positives from the real signal, a follow up screen on all of the 45 drugs using iRPE derived from two different iPSC lines was performed. The follow up screen was performed at three different A23187 concentrations (2.5, 5, 10 μM) and with seven different concentrations of drugs ranging from 10 nM-1 mM (FIG. 13D-F). […] Overall, the HTS screen provided two drugs for testing in the in vitro AMD model.

AMPK = assay: Phospho-AMPK ELISA in iPSC-RPE of L-ORD patients and unaffected siblings; conditions: for p-AMPK levels: 0% serum, 2 mM AICAR or 500 nM BAM15
Protocol: Thus, in FIG. 16b iPSC-RPE were incubated with recombinant CTRP5 globular form (0.2 μg/mL gCTRP5) for 30 min in the presence (+) and absence (−) of serum to evaluate its role in AMPK signaling.
To better elucidate the ADIPOR1-CTRP5 (receptor-ligand) interaction, […] a ligand dose response curve was performed (in serum free media) by exogenously adding increasing concentrations of recombinant full length CTRP5 (FIG. 16c).
AMPK is a sensitive indicator of the cell energy status and is canonically activated by the levels of AMP or ATP (Hardie and Lin, 2017). Therefore, the AMPK activity (in serum free media) of sibling and patient iPSC-RPE under conditions (increased AMP:ATP ratio) known to stimulate AMPK phosphorylation was characterized (FIG. 16d). iPSC-RPE were incubated in serum deprived media for 5 hours (Park et al., 2009) followed by 30 mins exposure to AICAR (an AMP analogue) or BAM15 (a mitochondrial uncoupler to reduce ATP production).
Metformin treatment consisted of 3 mM metformin added to the apical and basal media for 1½- 2 weeks.

ABCA1 = assay: Bodipy lipid deposits in CC-HS treated Stargardt iRPE with ABCA1 activator; conditions: 10 μM
Excerpt: 115(36): p. 9014-9019]. […] To further understand the ABCA4 driven mechanism in disease pathogenesis, this example focuses on ABCA1- an ABCA4 homolog, involved in cholesterol transport. […] Journal of Biological Chemistry, 2013. 288(48): p. 34414-34426, Tanaka, A. R., et al., Human ABCA1 contains a large amino-terminal extracellular domain homologous to an epitope of Sjögren's Syndrome. Biochemical and biophysical research communications, 2001. 283(5): p. 1019-1025, Storti, F., et al., Impaired ABCA1/ABCG1-mediated lipid efflux in the mouse retinal pigment epithelium (RPE) leads to retinal degeneration. Elife, 2019. 8: p. e45100.]. To determine if both ABCA proteins work through the lipid handling pathway, the effects of modulating ABCA1 expression on changes the disease phenotype in Stargardt RPE cells was observed. An shRNA knockdown of ABCA1 in ABCA4 iRPE cells was performed and the cells were treated with CC-HS. […] (FIG. 34A-G), In contrast, lipid accumulation defects in Stargardt RPE cells were rescued by ABCA1 overactivation using GW3965 (ABCA1 activator) (FIG. 34 H-N).

iRPE cells [3] = assay: Sub-RPE APOE deposits in CC-HS treated iRPE with receptor blockers; conditions: concurrent use of compstatin 10 μM (C3aR1 blocker) and PMX053 10 μM (C5aR1 blocker) in CC-HS
Excerpt: It was hypothesized that CC-HS triggered AMD cellular phenotypes in iRPE cells are generated by the anaphylatoxin arm of the complement pathway via C3a-C3aR1 and C5a-05aR1 signaling induced intracellular inflammation (Fernandez-Godino and Pierce 2018). RNAseq confirmed the expression of both receptors in iRPE cells with ˜30× higher expression in of C5aR1 as compared to C3aR1 (FIG. 10A). Furthermore, the expression of both receptors increases with CC-HS treatment. Western blot confirmed C3aR1 and C5aR1 receptors localization in the membrane fraction of iRPE cells (FIG. 2A). […] To verify that CC-HS activates C3aR and C5aR signaling in iRPE cells, samples were checked for phosphorylation of AKT and ERK1/2, the two key kinases downstream of C3aR1 and C5aR1 receptors (Hajishengallis and Lambris 2010; Zhu et al 2015 Mol Vis; Busch et al 2017 Front. In Immu.). […] Furthermore, consistent with the predominant apical localization of C3aR1 and C5aR1, apical only treatment of CC-HS caused a 4.5-5×TER drop (p<10^−16), similar to the combined apical/basal treatment of CC-HS. In contrast, basal only treatment of CC-HS resulted only in a 2×TER drop (p<10^−16) (FIG. 2H). To further dissect the role of C5aR1 and C3aR1 signaling in inducing AMD cellular phenotypes in iRPE cells, a depleted sera and receptor blocker strategy was employed. […]

iRPE monolayer = assay: Transepithelial resistance (TER) of CC-HS treated iRPE monolayer; conditions: compstatin 10 μM and PMX053 10 μM used together in CC-HS
Excerpt: Lastly, it was checked if the drugs rescued mature RPE phenotype and RPE functionality.

[4] = unaffected siblings, 5h 0% serum, 30 min, 25 ug/mL

CNc1ccc2oc(C[C@H]3O[C@@]4(CC[C@H]3C)O[C@H]([C@H](C)C(=O)c3ccc[nH]3)[C@H](C)C[C@H]4C)nc2c1C(=O)O [A23187]
cell death (iRPE cells [1]; 2.5 μM A23187, 48 hours): 50% | toxicity to iRPE cells (iRPE cells [1]; 96 hours, 2.5, 10, 25 μM A23187): completely toxic; also recorded: cytotoxic

COc1cc2ncnc(Nc3cccc(Cl)c3)c2cc1OC [AG-1478]
cytoprotective activity in follow up screen (iRPE cells [2]): linear response the seven-point dose curve and reproducibility between two different iRPE samples

NC(=O)c1ncn([C@@H]2O[C@H](CO)[C@@H](O)[C@H]2O)c1N [AICAR]
p-AMPK levels (AMPK; L-ORD patient RPE, 30 min): insensitive | p-AMPK levels (AMPK; unaffected siblings, 30 min): stimulates further phosphorylation of AMPK; also recorded: further elevation in AMPK levels

Fc1ccccc1Nc1nc2nonc2nc1Nc1ccccc1F [BAM15]
p-AMPK levels (AMPK; L-ORD patient RPE, 30 min): insensitive | p-AMPK levels (AMPK; unaffected siblings, 30 min): further stimulates phosphorylation of AMPK; also recorded: further elevation in AMPK levels

O=C(O)Cc1cccc(OCCCN(Cc2cccc(C(F)(F)F)c2Cl)CC(c2ccccc2)c2ccccc2)c1 [GW3965]
intra/sub-RPE bodipy-positive lipid deposits (ABCA1): rescued | intra/sub-RPE bodipy-positive lipid deposits (ABCA1; listed as GW 3965): reduced lipid deposit

CC[C@H](C)[C@H](N)C(=O)N[C@H]1CSSC[C@@H](C(=O)N[C@H](C(N)=O)[C@@H](C)O)NC(=O)[C@H](CCCN=C(N)N)NC(=O)[C@H](Cc2cnc[nH]2)NC(=O)[C@H](Cc2cnc[nH]2)NC(=O)CNC(=O)[C@H](Cc2c[nH]c3ccccc23)NC(=O)[C@H](CC(=O)O)NC(=O)[C@H](CCC(N)=O)NC(=O)[C@H](C(C)C)NC(=O)[C@H](C(C)C)NC1=O [compstatin]
lower sub-RPE APOE deposits compared to CC-HS plus vehicle (iRPE cells [3]): 2 × | higher iRPE monolayer TER compared to CC-HS treated samples (iRPE monolayer): 5 ×

B1: recombinant full length CTRP5: recombinant full length CTRP5 (protein, UniProt Q9BXJ0 1-243, looked up)
chain: MRPLLVLLLLGLAAGSPPLDDNKIPSLCPGHPGLPGTPGHHGSQGLPGRDGRDGRDGAPGAPGEKGEGGRPGLPGPRGDPGPRGEAGPAGPTGPAGECSVPPRSAFSAKRSESRVPPPSDAPLPFDRVLVNEQGHYDAVTGKFTCQVPGVYYFAVHATVYRASLQFDLVKNGESIASFFQFFGGWPKPASLSGGAMVRLEPEDQVWVQVGVGDYIGIYASIKTDSTFSGFLVYSDWHSSPVFA
modifications: full-length
change in p-AMPK levels (AMPK; L-ORD patient RPE, similar concentrations, serum free): had no effect on AMPK activity; also recorded: no measurable change | p-AMPK level (AMPK; [4]): 47.89%±0.13 | reduction in p-AMPK levels (AMPK; [4]): 50%
